Like-named read-outs stand apart in the source and are kept apart here.
Tests used:
[1] = system: patients with chronic constipation; assay: Weekly diary assessments (satisfaction with bowel habits, bothersome constipation, abdominal bloating, abdominal pain, global constipation relief) after 12 weeks, ANCOVA; format: in vivo, human; conditions: for weekly diary assessments, outcome: 6-mg bid vs placebo, 12 weeks; for Bothersome abdominal bloating, LS Mean Value / Bothersome abdominal pain, LS Mean Value / Bothersome constipation, LS Mean Value / Global constipation relief, LS Mean Value / Satisfaction with bowel habit, LS Mean Value: 12-wk, tegaserod 6-mg bid, lower value = better response
Protocol: Clinical assessments. […] The primary efficacy endpoint evaluated was the increase of 1 or more CSBM/week over baseline after 4 weeks of treatment. A secondary endpoint evaluated in this genotyping study was RESP12, the increase of 1 of more CSBM/week over baseline after 12 weeks of treatment. Patients were classified as responders if they met these criteria and had completed at least 7 days of treatment. Additional secondary efficacy assessments were evaluated based on the weekly diary assessments, such as bothersome constipation, bothersome abdominal pain, and satisfaction with bowel habits at the end of the 12-week treatment period (using the baseline value as a co-variant for analysis). Additional secondary endpoints. In addition to the above assessments, 5 additional secondary efficacy endpoints were evaluated from the weekly diary assessments. These included the weekly changes in satisfaction with bowel habits, bothersome constipation, bothersome abdominal bloating, bothersome abdominal pain, and global constipation relief. TABLE 13 presents the results of analysis comparing the overall change in these parameters at the end of 12 weeks of treatment by treatment (tegaserod 6-mg bid vs. placebo) and whether they had 1 or more of the 12 “high responder” SNPs. An ANCOVA model was applied using the baseline value of these assessments as a quantitative co-variant.

[2] = system: patients with chronic constipation; assay: Response by serotonin transporter (SLC6A4) promoter insertion/deletion genotype; format: in vivo, human; conditions: for OR: tegaserod vs placebo
Description: Two major classes of insertion/deletion polymorphisms have been characterized for the SLC6A4 gene, one in intron 2 and another in the promoter region. SLC6A4 is the serotonin transporter gene, also know as SERT or HTT. Camilleri and colleagues reported that SLC6A4 promoter insertion/deletion polymorphism was associated with colonic transit response following treatment with the serotonin 5-HT3 receptor antagonist alosetron. Camilleri M et al., Gastroenterology; 123 (2):425-32 (2002). […] The overall response rates for C16-C16 were 48% for tegaserod and 21% for placebo (OR=3.51, 95% CI: 1.67-7.41) compared to the C14-C14 homozygotes at 45% for tegaserod and 27% for placebo (OR=2.3, 95% CI: 0.93-5.69) and C14-C16 heterozygotes at 43% for tegaserod and 28% for placebo (OR=1.95; 95% CI: 1.12-3.41). Within a given treatment group, there was no statistically significant difference between response rates between the different genotypes.

[3] = system: chronic constipation patients; conditions: chronic constipation patients across North and South America; Johanson et al. 2004; cited from earlier work
[4] = system: healthy volunteers, patients with IBS-C, patients with chronic constipation; conditions: cited from earlier work

[H]/N=C(/NCCCCC)N/N=C/c1c[nH]c2ccc(OC)cc12 [tegaserod, Tegaserod]
weekly diary assessments, outcome ([1]; all patients combined): better outcome compared to placebo | weekly diary assessments, outcome ([1]; individuals with 1 or more of the 12 SNPs, all 5 assessments): significantly greater responses to tegaserod than placebo | weekly diary assessments, outcome ([1]; individuals with none of the 12 SNPs): no treatment difference | Bothersome abdominal bloating, LS Mean Value ([1]; 0 of 12 SNPs): 2.18 | Bothersome abdominal pain, LS Mean Value ([1]; 0 of 12 SNPs): 1.90 | Bothersome constipation, LS Mean Value ([1]; 0 of 12 SNPs): 2.25 | Global constipation relief, LS Mean Value ([1]; 0 of 12 SNPs): 2.20 | Satisfaction with bowel habit, LS Mean Value ([1]; 0 of 12 SNPs): 2.48 | Bothersome abdominal bloating, LS Mean Value ([1]; >=1 of 12 SNPs): 2.00 | Bothersome abdominal pain, LS Mean Value ([1]; >=1 of 12 SNPs): 1.77 | Bothersome constipation, LS Mean Value ([1]; >=1 of 12 SNPs): 1.87 | Global constipation relief, LS Mean Value ([1]; >=1 of 12 SNPs): 1.95 | Satisfaction with bowel habit, LS Mean Value ([1]; >=1 of 12 SNPs): 2.17 | Bothersome abdominal bloating, LS Mean Value ([1]; All geno): 2.09 | Bothersome abdominal pain, LS Mean Value ([1]; All geno): 1.84 | Bothersome constipation, LS Mean Value ([1]; All geno): 2.07 | Global constipation relief, LS Mean Value ([1]; All geno): 2.08 | Satisfaction with bowel habit, LS Mean Value ([1]; All geno): 2.33 | overall response rate ([2]; serotonin transporter promoter polymorphism C14-C14 homozygotes): 45% | overall response rate ([2]; serotonin transporter promoter polymorphism C14-C16 heterozygotes): 43% | overall response rate ([2]; serotonin transporter promoter polymorphism C16-C16 homozygotes): 48% | OR ([2]; C14-C14 homozygotes): 2.3 | OR ([2]; C14-C16 heterozygotes): 1.95 | OR ([2]; C16-C16 homozygotes): 3.51 | response rate [3]: 43% | colonic transit time ([4]; healthy volunteers (Degen et al. 2001)): significantly increase colonic transit time | colonic transit time ([4]; patients with IBS-C (Prather et al. 2000)): significantly increase colonic transit time | colonic transit time ([4]; patients with chronic constipation (Johanson et al. 2004)): significantly increase colonic transit time

Source: US20090118350A1, “Biomarkers for Identifying Efficacy of Tegaserod in Patients with Chronic Constipation” (priority 2005, published 2009)
